From article PMC4810358, “Applicability of the Rayleigh equation for enantioselective metabolism of chiral xenobiotics by microsomes, hepatocytes and in-vivo retention in rabbit tissues” (Scientific Reports, 2016)

Assay: in vivo stereoselective metabolism of doxazosin, plasma concentration-time profiles (Kong et al.)
Details: male Sprague–Dawley rats, from Fig. 3 in ref 25, R^2 = 0.92
Excerpt: For example, Sun et al.[26] have reviewed the enantioselective behavior of the fungicide myclobutanil enantiomers in variant rabbit tissues following intravenous administration of the racemic fungicide. Using the plasma concentration-time curves of the two enantiomers (presented in Fig. 1A in ref. [26]) we obtained the enantiomeric enrichment factor of −28 ± 5 (R^2 = 0.97). Analysis of the distribution of myclobutanil in various tissues, presented in Fig. 3 in ref. [26], obtained the enantiomeric enrichment factors of −33 ± 16 (R^2 = 0.92) for the liver, −20 ± 6 (R^2 = 0.97) for the brain, −32 ± 16 (R^2 = 0.89) for the kidney and −21 ± 6 (R^2 = 0.97) for the muscle. […] This quantitative ranking is obscured by the large number of time trace data points in the original presentation. Another example can be presented by the study of Kong et al.[25] reporting on the stereoselective metabolism of the alpha blocker doxazosin (DOX) in vivo in male Sprague–Dawley rats.

## COc1cc2nc(N3CCN(C(=O)C4COc5ccccc5O4)CC3)nc(N)c2cc1OC (stereo not shown) [DOX, doxazosin]
  enantiomeric enrichment factor: −45 ± 13
